Where a name gives a salt, the structure may show the parent alone.
- melting point: 184 to 185 °C
Compound: Cc1ccc(N2CCN(CCc3ccc(COc4ccc5c(c4)OCO5)cc3)CC2)cc1 (as salt: HCl) [Compound 10, 1-(2-(4-((Benzo[d][1,3]dioxol-5-yloxy)methyl)phenyl)ethyl)-4-p-tolylpiperazine]

— PMC6271825, “Synthesis and Cytotoxic Activity Evaluation of Novel Arylpiperazine Derivatives on Human Prostate Cancer Cell Lines” (Molecules, 2014)
